From publication PMC11200585, “Prospects for Prostate Cancer Chemotherapy: Cytotoxic Evaluation and Mechanistic Insights of Quinolinequinones with ADME/PK Profile” (Biomedicines, 2024)

Assays:
Format in all cases: cell-based, human
ACHN = assay: NCI-60 five-dose assay (renal cancer); conditions: 48 h, SRB; for GI50 / LC50: Homo sapiens
SK-MEL-2 = assay: NCI-60 five-dose assay (melanoma); conditions: 48 h, SRB; for GI50 / CC50: Homo sapiens; for CC50: read-out: LC50 (the source's name)
SNB-19 = assay: NCI-60 five-dose assay (CNS cancer); conditions: 48 h, SRB; for GI50 / CC50: Homo sapiens; for CC50: read-out: LC50 (the source's name)
NCI-H226 [1] = assay: NCI-60 five-dose assay (non-small cell lung cancer); conditions: 48 h, SRB; for GI50 / LC50: Homo sapiens
OVCAR-4 = assay: NCI-60 one-dose screen (ovarian cancer); conditions: 10 µM single dose, 48 h
Protocol: (§1) The obtained quinolinequinones were submitted to NCI, Bethesda, USA, and, as per standard protocol of NCI, all compounds were evaluated for their antiproliferative activity at single-dose assay (10 µM concentration in DMSO) on a panel of 60 cancer cell lines derived from leukemia, non-small-cell lung, colon, CNS, melanoma, ovarian, renal, prostate, and breast, as per protocol. Tested compounds were added to the microtiter culture plates followed by incubation for 48 h at 37 °C. Sulforhodamine B (SRB), a protein-binding dye, is used for endpoint determination. The percent of the growth of the treated cells was determined in comparison to the untreated control cells and the results of each tested compound were reported. Data from one-dose experiments pertain to the percentage growth at 10 μM [16, 17, 18].

SK-OV-3 = assay: NCI-60 one-dose screen (ovarian cancer); conditions: 10 µM single dose, 48 h
Protocol: as §1

OVCAR-5 = assay: NCI-60 one-dose screen (ovarian cancer); conditions: 10 µM single dose, 48 h
Protocol: as §1

IGROV1 = assay: NCI-60 one-dose screen (ovarian cancer); conditions: 10 µM single dose, 48 h
Protocol: as §1

NCI/ADR-RES = assay: NCI-60 one-dose screen (ovarian cancer); conditions: 10 µM single dose; for GP (growth percentage): 48 h
Protocol: as §1

OVCAR-8 = assay: NCI-60 one-dose screen (ovarian cancer); conditions: 10 µM single dose; for GP (growth percentage): 48 h; for inhibition at 10 µM: Homo sapiens
Protocol: as §1

HCT-116 = assay: NCI-60 five-dose assay (colon cancer); conditions: 48 h, SRB; for GI50 / LC50: Homo sapiens
HL-60(TB) = assay: NCI-60 five-dose assay (leukemia); conditions: 48 h, SRB; for GI50 / CC50: Homo sapiens; for CC50: read-out: LC50 (the source's name)
CAKI-1 = assay: NCI-60 five-dose assay (renal cancer); conditions: 48 h, SRB; for GI50 / LC50 (lethal concentration, 50% net cell kill): Homo sapiens
786-0 = assay: NCI-60 five-dose assay (renal cancer); conditions: 48 h, SRB; for GI50 / LC50: Homo sapiens
UACC-257 = assay: NCI-60 five-dose assay (melanoma); conditions: 48 h, SRB; for GI50 / LC50 (NCI-60 lethal concentration, 50% cell kill): Homo sapiens
SN12C = assay: NCI-60 five-dose assay (renal cancer); conditions: 48 h, SRB; for GI50 / LC50 (concentration killing 50% of starting cells): Homo sapiens
M14 = assay: NCI-60 five-dose assay (melanoma); conditions: 48 h, SRB; for GI50 / LC50: Homo sapiens
HOP-92 [2] = assay: NCI-60 five-dose assay (non-small cell lung cancer); conditions: 48 h, SRB; for GI50 / LC50 (50% lethal concentration): Homo sapiens
NCI-H226 [3] = assay: NCI-60 one-dose screen (non-small cell lung cancer); conditions: 10 µM single dose; for GP (growth percentage): 48 h
Protocol: as §1

NCI-H322M = assay: as above; conditions: 10 µM single dose, 48 h
Protocol: as §1

NCI-H522 = assay: as above; conditions: 10 µM single dose, 48 h
Protocol: as §1

HOP-62 [4] = assay: as above; conditions: 10 µM single dose, 48 h
Protocol: as §1

EKVX = assay: as above; conditions: 10 µM single dose; for GP (growth percentage): 48 h
Protocol: as §1

NCI-H460 = assay: as above; conditions: 10 µM single dose; for GP (growth percentage): 48 h
Protocol: as §1

HOP-92 [5] = assay: as above; conditions: 10 µM single dose, 48 h
Protocol: as §1

A549/ATCC = assay: as above; conditions: 10 µM single dose, 48 h
Protocol: as §1

COLO 205 = assay: NCI-60 five-dose assay (colon cancer); conditions: 48 h, SRB
KM12 = assay: NCI-60 five-dose assay (colon cancer); conditions: 48 h, SRB; for GI50 / CC50: Homo sapiens; for CC50: read-out: LC50 (the source's name)
MDA-MB-231/ATCC = assay: NCI-60 five-dose assay (breast cancer); conditions: 48 h, SRB; for GI50 / LC50 (concentration killing 50% of cells): Homo sapiens
RPMI-8226 = assay: NCI-60 five-dose assay (leukemia); conditions: 48 h, SRB; for GI50 / CC50: Homo sapiens; for CC50: read-out: LC50 (the source's name)
HCT-15 = assay: NCI-60 five-dose assay (colon cancer); conditions: 48 h, SRB; for GI50 / CC50: Homo sapiens; for CC50: read-out: LC50 (the source's name)
RXF 393 = assay: NCI-60 five-dose assay (renal cancer); conditions: 48 h, SRB; for GI50 / LC50: Homo sapiens
U251 = assay: NCI-60 five-dose assay (CNS cancer); conditions: SRB; for TGI: 48 h; for GI50 / LC50 (concentration killing 50% of cells): Homo sapiens, U-251, 48 h
SK-MEL-28 = assay: NCI-60 five-dose assay (melanoma); conditions: 48 h, SRB; for GI50 / LC50: Homo sapiens
SF-539 = assay: NCI-60 five-dose assay (CNS cancer); conditions: 48 h, SRB; for GI50 / LC50: Homo sapiens
HOP-62 [6] = assay: NCI-60 five-dose assay (non-small cell lung cancer); conditions: 48 h, SRB; for GI50 / LC50 (concentration killing 50% of cells): Homo sapiens

## CCOc1ccc(NC2=C(Cl)C(=O)c3nc(C)ccc3C2=O)cc1 [AQQ3]
ACHN
  TGI: 2.92 µM
  GI50: 1.57 µM
  LC50: 5.45 µM
SK-MEL-2
  TGI: 3.03 µM
  GI50: 1.63 µM
  CC50: 5.64 µM
SNB-19
  TGI: 3.16 µM
  GI50: 1.68 µM
  CC50: 5.94 µM
NCI-H226 [1]
  TGI: 4.52 µM
  GI50: 1.84 µM
  LC50: > 100 µM
OVCAR-4
  GP (growth percentage): −97.52%
SK-OV-3
  GP (growth percentage): 79.78%
OVCAR-5
  GP (growth percentage): 54.83%
IGROV1
  GP (growth percentage): −82.43%
NCI/ADR-RES
  GP (growth percentage): −15.63%
OVCAR-8
  GP (growth percentage): 1.03%
  inhibition at 10 µM: 99%
HCT-116
  TGI: 2.79 µM
  GI50: 1.32 µM
  LC50: 5.92 µM
HL-60(TB)
  TGI: 4.18 µM
  GI50: 1.47 µM
  CC50: > 100 µM
CAKI-1
  TGI: 2.97 µM
  GI50: 1.6 µM
  LC50 (lethal concentration, 50% net cell kill): 5.51 µM
786-0
  TGI: 3.19 µM
  GI50: 1.72 µM
  LC50: 5.89 µM
UACC-257
  TGI: 2.78 µM
  GI50: 1.39 µM
  LC50 (NCI-60 lethal concentration, 50% cell kill): 5.58 µM
SN12C
  TGI: 2.99 µM
  GI50: 1.58 µM
  LC50 (concentration killing 50% of starting cells): 5.66 µM
M14
  TGI: 3.23 µM
  GI50: 1.68 µM
  LC50: 6.21 µM
HOP-92 [2]
  TGI: 3.51 µM
  GI50: 2.01 µM
  LC50 (50% lethal concentration): 6.12 µM
NCI-H226 [3]
  GP (growth percentage): −52.55%
NCI-H322M
  GP (growth percentage): 32.37%
NCI-H522
  GP (growth percentage): −61.57%
HOP-62 [4]
  GP (growth percentage): 72.15%
EKVX
  GP (growth percentage): −97.48%
NCI-H460
  GP (growth percentage): 13.41%
NCI-H460; Homo sapiens
  inhibition at 10 µM: 86.6%
HOP-92 [5]
  GP (growth percentage): −86.99%
A549/ATCC
  GP (growth percentage): 46.18%
COLO 205
  TGI: 3.64 µM
COLO 205; Homo sapiens
  GI50: 1.86 µM
COLO 205; Homo sapiens, read-out: LC50 (the source's name)
  CC50: 7.12 µM
KM12
  TGI: 3.07 µM
  GI50: 1.44 µM
  CC50: 6.51 µM
MDA-MB-231/ATCC
  TGI: 2.50 µM
  GI50: 1.17 µM
  LC50 (concentration killing 50% of cells): 5.34 µM
RPMI-8226
  TGI: 5.33 µM
  GI50: 1.67 µM
  CC50: > 100 µM
HCT-15
  TGI: 2.94 µM
  GI50: 1.3 µM
  CC50: 6.66 µM
RXF 393
  TGI: 2.96 µM
  GI50: 1.57 µM
  LC50: 5.61 µM
U251
  TGI: 3.54 µM
  GI50: 1.8 µM
  LC50 (concentration killing 50% of cells): 6.94 µM
SK-MEL-28
  TGI: 3.14 µM
  GI50: 1.73 µM
  LC50: 5.7 µM
SF-539
  TGI: 3.13 µM
  GI50: 1.68 µM
  LC50: 5.84 µM
HOP-62 [6]
  TGI: 3.23 µM
  GI50: 1.74 µM
  LC50 (concentration killing 50% of cells): 6.01 µM

## COc1ccccc1NC1=C(Cl)C(=O)c2nc(C)ccc2C1=O [AQQ1]
ACHN
  TGI: 2.80 µM
  GI50: 1.47 µM
  LC50: 5.34 µM
SK-MEL-2
  TGI: 3.34 µM
  GI50: 1.81 µM
  CC50: 6.19 µM
SNB-19
  TGI: 3.72 µM
  GI50: 1.81 µM
  CC50: 7.64 µM
NCI-H226 [1]
  TGI: 4.52 µM
  GI50: 1.93 µM
  LC50: 14.1 µM
OVCAR-4
  GP (growth percentage): −98.22%
SK-OV-3
  GP (growth percentage): 88.34%
OVCAR-5
  GP (growth percentage): 78.91%
IGROV1
  GP (growth percentage): −83.51%
NCI/ADR-RES
  GP (growth percentage): 7.08%
NCI/ADR-RES; Homo sapiens
  inhibition at 10 µM: 92.9%
OVCAR-8
  GP (growth percentage): 9.87%
  inhibition at 10 µM: 90.1%
HCT-116
  TGI: 4.16 µM
  GI50: 1.53 µM
  LC50: 44.3 µM
HL-60(TB)
  TGI: 3.52 µM
  GI50: 1.37 µM
  CC50: 9.03 µM
CAKI-1
  TGI: 2.87 µM
  GI50: 1.5 µM
  LC50 (lethal concentration, 50% net cell kill): 5.47 µM
786-0
  TGI: 3.61 µM
  GI50: 1.91 µM
  LC50: 6.82 µM
UACC-257
  TGI: 3.09 µM
  GI50: 1.57 µM
  LC50 (NCI-60 lethal concentration, 50% cell kill): 6.11 µM
SN12C
  TGI: 3.29 µM
  GI50: 1.7 µM
  LC50 (concentration killing 50% of starting cells): 6.36 µM
M14
  TGI: 3.81 µM
  GI50: 1.82 µM
  LC50: 7.96 µM
HOP-92 [2]
  TGI: 3.30 µM
  GI50: 1.85 µM
  LC50 (50% lethal concentration): 5.91 µM
NCI-H226 [3]
  GP (growth percentage): 29.65%
NCI-H226 [3]; Homo sapiens
  inhibition at 10 µM: 70.3%
NCI-H322M
  GP (growth percentage): 71.14%
NCI-H522
  GP (growth percentage): −48.50%
HOP-62 [4]
  GP (growth percentage): 74.12%
EKVX
  GP (growth percentage): 28.52%
EKVX; Homo sapiens
  inhibition at 10 µM: 71.5%
NCI-H460
  GP (growth percentage): 70.83%
HOP-92 [5]
  GP (growth percentage): −83.81%
A549/ATCC
  GP (growth percentage): 101.36%
COLO 205
  TGI: 3.87 µM
COLO 205; Homo sapiens
  GI50: 1.78 µM
KM12
  TGI: 3.08 µM
  GI50: 1.49 µM
  CC50: 6.4 µM
MDA-MB-231/ATCC
  TGI: 2.53 µM
  GI50: 1.19 µM
  LC50 (concentration killing 50% of cells): 5.37 µM
RPMI-8226
  TGI: 4.61 µM
  GI50: 1.57 µM
  CC50: > 100 µM
HCT-15
  TGI: 3.02 µM
  GI50: 1.33 µM
  CC50: 6.83 µM
RXF 393
  TGI: 2.76 µM
  GI50: 1.42 µM
  LC50: 5.36 µM
U251
  TGI: 3.73 µM
  GI50: 1.85 µM
  LC50 (concentration killing 50% of cells): 7.53 µM
SK-MEL-28
  TGI: 3.34 µM
  GI50: 1.85 µM
  LC50: 6.02 µM
SF-539
  TGI: 3.13 µM
  GI50: 1.68 µM
  LC50: 5.81 µM
HOP-62 [6]
  TGI: 6.98 µM
  GI50: 2.41 µM
  LC50 (concentration killing 50% of cells): 37.5 µM
